For 6 cell lines, relative viability results are on record in the supplement of paper PMC10307832.

Assay in all cases: relative viability (nuclei count vs DMSO), 5 days (fraction); higher = more cells survive
Compound in the experiment “OSI-027 + Navitoclax”: COc1cccc2cc(-c3nc([C@H]4CC[C@H](C(=O)O)CC4)n4ncnc(N)c34)[nH]c12 [OSI-027] + CC1(C)CCC(c2ccc(Cl)cc2)=C(CN2CCN(c3ccc(C(=O)NS(=O)(=O)c4ccc(N[C@H](CCN5CCOCC5)CSc5ccccc5)c(S(=O)(=O)C(F)(F)F)c4)cc3)CC2)C1 [Navitoclax] (partner 0.5 µM)
The gist of the method: (§1)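 Values are medians from duplicate plates. Each reflects relative viability, defined as the nuclei count of treated wells over that of vehicle wells. Lung cancer cell lines in 1536-well plates were pin-tool dosed one day after seeding with one drug alone or with a fixed anchor-drug dose plus five library-drug doses (not always all listed) in √10 steps, then fixed, stained and imaged at 4× after 5 days.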

Compound in the experiment “OSI-027 + Crizotinib”: COc1cccc2cc(-c3nc([C@H]4CC[C@H](C(=O)O)CC4)n4ncnc(N)c34)[nH]c12 [OSI-027] + C[C@@H](Oc1cc(-c2cnn(C3CCNCC3)c2)cnc1N)c1c(Cl)ccc(F)c1Cl [Crizotinib] (partner 1 µM)
The essentials: as §1

Compound in the experiment “Vemurafenib + Dasatinib”: CCCS(=O)(=O)Nc1ccc(F)c(C(=O)c2c[nH]c3ncc(-c4ccc(Cl)cc4)cc23)c1F [Vemurafenib] + Cc1nc(Nc2ncc(C(=O)Nc3c(C)cccc3Cl)s2)cc(N2CCN(CCO)CC2)n1 [Dasatinib] (partner 0.075 µM)
The gist of the method: as §1

Compound in the experiment “Vemurafenib + AZD7762”: CCCS(=O)(=O)Nc1ccc(F)c(C(=O)c2c[nH]c3ncc(-c4ccc(Cl)cc4)cc23)c1F [Vemurafenib] + NC(=O)Nc1cc(-c2cccc(F)c2)sc1C(=O)N[C@H]1CCCNC1 [AZD7762] (partner 0.2 µM)
The gist of the method:
as §1

On to NCI-H1650, for which the relative viability is 1.21 with OSI-027 + Navitoclax (first compound 0.01 µM); 1.47 with OSI-027 + Navitoclax (first compound 0.03162 µM); 1.11 in the experiment with OSI-027 + Navitoclax (first compound 0.1 µM); 1.29 with OSI-027 + Navitoclax (first compound 0.3162 µM); 0.459 with OSI-027 + Navitoclax (first compound 1 µM); 1.13 with OSI-027 + Crizotinib (first compound 0.01 µM). Moreover, the relative viability is 0.999 in the experiment with OSI-027 + Crizotinib (first compound 0.03162 µM); 0.886 with OSI-027 + Crizotinib (first compound 0.1 µM); 1.2 with OSI-027 + Crizotinib (first compound 0.3162 µM); 0.531 with OSI-027 + Crizotinib (first compound 1 µM); 0.301 with Vemurafenib + Dasatinib (first compound 0.1 µM); 0.305 with Vemurafenib + Dasatinib (first compound 1 µM).

For NCI-H1703, the relative viability with OSI-027 + Navitoclax (first compound 0.01 µM) was determined as 0.864; in the experiment with OSI-027 + Navitoclax (first compound 0.03162 µM) it was 1.11; with OSI-027 + Navitoclax (first compound 0.1 µM), 0.991; with OSI-027 + Navitoclax (first compound 0.3162 µM), 0.625; in the experiment with OSI-027 + Navitoclax (first compound 1 µM) it was 0.512; in the experiment with OSI-027 + Crizotinib (first compound 0.01 µM) it was 0.753. Further, the relative viability with OSI-027 + Crizotinib (first compound 0.03162 µM) was 0.591; with OSI-027 + Crizotinib (first compound 0.1 µM), 0.595; in the experiment with OSI-027 + Crizotinib (first compound 0.3162 µM), 0.672; with OSI-027 + Crizotinib (first compound 1 µM) it was 0.374; with Vemurafenib + AZD7762 (first compound 0.03162 µM), 0.12; in the experiment with Vemurafenib + AZD7762 (first compound 1 µM), 0.101.

Take SK-MES-1: the relative viability in the experiment with OSI-027 + Navitoclax (first compound 0.01 µM) turned out to be 1.27; with OSI-027 + Navitoclax (first compound 0.03162 µM), 1.23; in the experiment with OSI-027 + Navitoclax (first compound 0.1 µM) it was 1.17; in the experiment with OSI-027 + Navitoclax (first compound 0.3162 µM), 0.974; with OSI-027 + Navitoclax (first compound 1 µM), 0.484; with OSI-027 + Crizotinib (first compound 0.01 µM) it was 0.995. Also, the relative viability with OSI-027 + Crizotinib (first compound 0.03162 µM) was determined as 0.933; in the experiment with OSI-027 + Crizotinib (first compound 0.1 µM), 0.997; with OSI-027 + Crizotinib (first compound 0.3162 µM), 0.965; with OSI-027 + Crizotinib (first compound 1 µM) it was 0.52; with Vemurafenib + Dasatinib (first compound 0.03162 µM), 0.372; in the experiment with Vemurafenib + Dasatinib (first compound 0.1 µM), 0.155. For the same cell line, the relative viability stood at 0.303 in the experiment with Vemurafenib + Dasatinib (first compound 0.3162 µM) and 0.389 in the experiment with Vemurafenib + Dasatinib (first compound 1 µM).

As for LCLC-103H, the relative viability is 1.07 with OSI-027 + Crizotinib (first compound 0.01 µM); 1.03 with OSI-027 + Crizotinib (first compound 0.03162 µM); 1.18 with OSI-027 + Crizotinib (first compound 0.1 µM); 0.948 with OSI-027 + Crizotinib (first compound 0.3162 µM); 1.01 with OSI-027 + Crizotinib (first compound 1 µM); 0.45 in the experiment with Vemurafenib + Dasatinib (first compound 0.03162 µM). The relative viability with Vemurafenib + Dasatinib (first compound 0.1 µM) is 0.505; with Vemurafenib + Dasatinib (first compound 0.3162 µM), 0.317; with Vemurafenib + Dasatinib (first compound 1 µM), 0.388; with Vemurafenib + AZD7762 (first compound 0.03162 µM), 0.757; in the experiment with Vemurafenib + AZD7762 (first compound 0.1 µM) it was 0.741; in the experiment with Vemurafenib + AZD7762 (first compound 0.3162 µM), 0.617. Further, the relative viability with Vemurafenib + AZD7762 (first compound 1 µM) is 0.694.

EBC-1: the relative viability with OSI-027 + Navitoclax (first compound 0.01 µM) was found to be 0.382; in the experiment with OSI-027 + Navitoclax (first compound 0.03162 µM), 0.33; in the experiment with OSI-027 + Navitoclax (first compound 0.1 µM), 0.432; with OSI-027 + Navitoclax (first compound 0.3162 µM), 0.239; with OSI-027 + Navitoclax (first compound 1 µM), 0.203; with OSI-027 + Crizotinib (first compound 0.01 µM) it was 0.21. In addition, the relative viability with OSI-027 + Crizotinib (first compound 0.03162 µM) came to 0.21; in the experiment with OSI-027 + Crizotinib (first compound 0.1 µM), 0.183; with OSI-027 + Crizotinib (first compound 0.3162 µM) it was 0.184; in the experiment with OSI-027 + Crizotinib (first compound 1 µM), 0.164.

On to SK-LU-1, for which the relative viability came to 0.743 in the experiment with OSI-027 + Navitoclax (first compound 0.01 µM); 0.869 with OSI-027 + Navitoclax (first compound 0.03162 µM); 0.679 with OSI-027 + Navitoclax (first compound 0.1 µM); 0.453 in the experiment with OSI-027 + Navitoclax (first compound 0.3162 µM); 0.259 with OSI-027 + Navitoclax (first compound 1 µM); 0.937 with OSI-027 + Crizotinib (first compound 0.01 µM). In addition, the relative viability with OSI-027 + Crizotinib (first compound 0.03162 µM) turned out to be 0.789; with OSI-027 + Crizotinib (first compound 0.1 µM) it was 0.644; with OSI-027 + Crizotinib (first compound 0.3162 µM) it was 0.531; in the experiment with OSI-027 + Crizotinib (first compound 1 µM) it was 0.358; in the experiment with Vemurafenib + Dasatinib (first compound 0.03162 µM), 0.16; with Vemurafenib + Dasatinib (first compound 0.1 µM), 0.17. The relative viability is 0.159 with Vemurafenib + Dasatinib (first compound 0.3162 µM) and 0.185 with Vemurafenib + Dasatinib (first compound 1 µM).
